Assay results reported in patent US20250241891A1, “TREATMENT OF ANXIETY” (GH RESEARCH IRELAND LIMITED, priority 2022, published 2025).

How the values were obtained:
[1] = Pharmacokinetics of 5-MeO-DMT and bufotenine after inhalation; format: in vivo, human
Experimental: Blood samples were obtained at 1; 2; 4; 7; 10; 15; 20; 30; 45 min and 1; 1.5; 2; 3; 4 hours after administration.
PK parameters were generated by algebraic analysis of the concentration versus time plots for each individual. The analysis was carried out using the software Phoenix WinNonlin 6.3.

[2] = system: patients with treatment-resistant major depressive disorder (TRD); test: Phase 1/2 clinical trial of inhaled 5-MeO-DMT in TRD (MADRS, BPRS, safety); details: for patients experiencing at least one ADR: n=4, all ADRs mild and resolved spontaneously
Experimental: Patients were assigned to different groups. In the context of the present invention, the group who received a single, 12 mg dose and the group who underwent an intra-day individualized dosing regimen (IDR) that allowed for multiple, escalating doses (6 mg, 12 mg and 18 mg) within a single day, driven by the intensity of the patient-reported psychedelic experience are of interest.
The data gathered include the assessment of the treated patients against several scales including the Montgomery-Åsberg Depression Rating Scale (MADRS) and the Brief Psychiatric Rating Scale (BPRS).
This trial was designed in two parts. Part A was an open-label, single-arm, single-dose Phase 1 trial with two dose levels (12 mg (n=4) and 18 mg (n=4)). […] The primary endpoint of Part B was to assess the effects on the severity of depression, as assessed by the proportion of patients in remission on day seven after dosing, defined as a MADRS total score of less than or equal to 10.

[3] = TRD, IDR 6/12/18 mg inhaled, sum n=8, 2 h after last dose, baseline 26
[4] = TRD, IDR 6/12/18 mg inhaled, sum n=8, 2 h after last dose, baseline 28
[5] = TRD, IDR 6/12/18 mg inhaled, sum n=8, 3 h after last dose, baseline 37
[6] = TRD, IDR 6/12/18 mg inhaled, sum n=8, day 1, baseline 25
[7] = TRD, IDR 6/12/18 mg inhaled, sum n=8, day 1, baseline 26
[8] = TRD, IDR 6/12/18 mg inhaled, sum n=8, day 1, baseline 37
[9] = TRD, IDR 6/12/18 mg inhaled, sum n=8, day 7, baseline 25
[10] = TRD, IDR 6/12/18 mg inhaled, sum n=8, day 7, baseline 26
[11] = TRD, IDR 6/12/18 mg inhaled, sum n=8, day 7, baseline 30
[12] = TRD, IDR 6/12/18 mg inhaled, sum n=8, day 7, baseline 37
[13] = TRD, single 12 mg inhaled, sum n=4, 2 h after dose, baseline 13
[14] = TRD, single 12 mg inhaled, sum n=4, 2 h after dose, baseline 16
[15] = TRD, single 12 mg inhaled, sum n=4, 3 h after dose, baseline 18
[16] = TRD, single 12 mg inhaled, sum n=4, 3 h after dose, baseline 25
[17] = TRD, single 12 mg inhaled, sum n=4, day 1, baseline 12
[18] = TRD, single 12 mg inhaled, sum n=4, day 1, baseline 13
[19] = TRD, single 12 mg inhaled, sum n=4, day 1, baseline 16
[20] = TRD, single 12 mg inhaled, sum n=4, day 1, baseline 25
[21] = TRD, single 12 mg inhaled, sum n=4, day 7, baseline 12
[22] = TRD, single 12 mg inhaled, sum n=4, day 7, baseline 13
[23] = TRD, single 12 mg inhaled, sum n=4, day 7, baseline 16
[24] = TRD, single 12 mg inhaled, sum n=4, day 7, baseline 25

COc1ccc2[nH]cc(CCN(C)C)c2c1 [5-MeO-DMT]
detectability in the plasma ([1]; 3 hours after inhalation, whole dose range 6, 12, 18 mg): no longer detectable | pharmacokinetic measurements with uptitration dosing schemes compared with single doses ([1]; inhalation, uptitration): Substantially similar results were obtained | accumulation upon repeated administration ([1]; repeated inhalation within a time frame of 1 to 4 hours): No accumulation is observed | patients experiencing at least one ADR ([2]; Part A, single 12 mg inhaled): 3 of 4 | SAEs ([2]; Part A, single 12 mg or 18 mg inhaled): No SAEs were reported | patients experiencing at least one ADR ([2]; Part A, single 18 mg inhaled): 3 of 4 | SAEs ([2]; Part B, IDR 6/12/18 mg inhaled, n=8): No SAEs were reported | MADRS Suicidal Thoughts score ([2]; TRD, IDR 6/12/18 mg inhaled, sum n=8, 2 h after last dose, baseline 11): 3 | MADRS Inner Tension percentage improvement [2, 3]: 58% | MADRS Inner Tension score [2, 3]: 11 | MADRS Lassitude score ([2]; TRD, IDR 6/12/18 mg inhaled, sum n=8, 2 h after last dose, baseline 27): 10 | MADRS Pessimistic Thoughts percentage improvement [2, 4]: 75.00% | MADRS Pessimistic Thoughts score [2, 4]: 7 | MADRS Concentration Difficulties score ([2]; TRD, IDR 6/12/18 mg inhaled, sum n=8, 2 h after last dose, baseline 30): 11 | MADRS Inability to Feel score ([2]; TRD, IDR 6/12/18 mg inhaled, sum n=8, 2 h after last dose, baseline 36): 12 | BPRS Emotional Withdrawal score ([2]; TRD, IDR 6/12/18 mg inhaled, sum n=8, 3 h after last dose, baseline 13): 8 | BPRS Blunted Affect score ([2]; TRD, IDR 6/12/18 mg inhaled, sum n=8, 3 h after last dose, baseline 15): 11 | BPRS Tension score ([2]; TRD, IDR 6/12/18 mg inhaled, sum n=8, 3 h after last dose, baseline 16): 11 | BPRS Guilt Feelings score ([2]; TRD, IDR 6/12/18 mg inhaled, sum n=8, 3 h after last dose, baseline 34): 14 | BPRS Anxiety percentage improvement [2, 5]: 49% | BPRS Anxiety score [2, 5]: 19 | MADRS Suicidal Thoughts score ([2]; TRD, IDR 6/12/18 mg inhaled, sum n=8, day 1, baseline 11): 1 | BPRS Emotional Withdrawal score ([2]; TRD, IDR 6/12/18 mg inhaled, sum n=8, day 1, baseline 13): 8 | BPRS Blunted Affect score ([2]; TRD, IDR 6/12/18 mg inhaled, sum n=8, day 1, baseline 15): 8 | BPRS Tension score ([2]; TRD, IDR 6/12/18 mg inhaled, sum n=8, day 1, baseline 16): 11 | MADRS Reduced Sleep percentage improvement [2, 6]: 52% | MADRS Reduced Sleep score [2, 6]: 12 | MADRS Inner Tension percentage improvement [2, 7]: 77% | MADRS Inner Tension score [2, 7]: 6 | MADRS Lassitude score ([2]; TRD, IDR 6/12/18 mg inhaled, sum n=8, day 1, baseline 27): 5 | MADRS Pessimistic Thoughts score ([2]; TRD, IDR 6/12/18 mg inhaled, sum n=8, day 1, baseline 28): 4 | MADRS Concentration Difficulties score ([2]; TRD, IDR 6/12/18 mg inhaled, sum n=8, day 1, baseline 30): 1 | BPRS Guilt Feelings score ([2]; TRD, IDR 6/12/18 mg inhaled, sum n=8, day 1, baseline 34): 11 | MADRS Inability to Feel score ([2]; TRD, IDR 6/12/18 mg inhaled, sum n=8, day 1, baseline 36): 2 | BPRS Anxiety percentage improvement [2, 8]: 57% | BPRS Anxiety score [2, 8]: 16 | MADRS Suicidal Thoughts score ([2]; TRD, IDR 6/12/18 mg inhaled, sum n=8, day 7, baseline 11): 3 | BPRS Emotional Withdrawal score ([2]; TRD, IDR 6/12/18 mg inhaled, sum n=8, day 7, baseline 13): 8 | BPRS Blunted Affect score ([2]; TRD, IDR 6/12/18 mg inhaled, sum n=8, day 7, baseline 15): 8 | BPRS Tension score ([2]; TRD, IDR 6/12/18 mg inhaled, sum n=8, day 7, baseline 16): 10 | MADRS Reduced Sleep percentage improvement [2, 9]: 64% | MADRS Reduced Sleep score [2, 9]: 9 | MADRS Inner Tension percentage improvement [2, 10]: 54% | MADRS Inner Tension score [2, 10]: 12 | MADRS Lassitude score ([2]; TRD, IDR 6/12/18 mg inhaled, sum n=8, day 7, baseline 27): 3 | MADRS Pessimistic Thoughts score ([2]; TRD, IDR 6/12/18 mg inhaled, sum n=8, day 7, baseline 28): 3 | MADRS Concentration Difficulties percentage improvement [2, 11]: 70.00% | MADRS Concentration Difficulties score [2, 11]: 9 | BPRS Guilt Feelings score ([2]; TRD, IDR 6/12/18 mg inhaled, sum n=8, day 7, baseline 34): 10 | MADRS Inability to Feel score ([2]; TRD, IDR 6/12/18 mg inhaled, sum n=8, day 7, baseline 36): 6 | BPRS Anxiety percentage improvement [2, 12]: 54% | BPRS Anxiety score [2, 12]: 17 | MADRS Suicidal Thoughts score ([2]; TRD, single 12 mg inhaled, sum n=4, 2 h after dose, baseline 8): 3 | MADRS Inner Tension percentage improvement [2, 13]: 85% | MADRS Inner Tension score [2, 13]: 2 | MADRS Concentration Difficulties score [2, 14]: 7 | MADRS Inability to Feel score [2, 14]: 9 | MADRS Lassitude score [2, 14]: 10 | MADRS Pessimistic Thoughts percentage improvement [2, 14]: 50.00% | MADRS Pessimistic Thoughts score [2, 14]: 8 | BPRS Blunted Affect score ([2]; TRD, single 12 mg inhaled, sum n=4, 3 h after dose, baseline 11): 8 | BPRS Emotional Withdrawal score ([2]; TRD, single 12 mg inhaled, sum n=4, 3 h after dose, baseline 13): 11 | BPRS Tension score ([2]; TRD, single 12 mg inhaled, sum n=4, 3 h after dose, baseline 14): 9 | BPRS Guilt Feelings percentage improvement [2, 15]: 50.00% | BPRS Guilt Feelings score [2, 15]: 9 | BPRS Anxiety percentage improvement [2, 16]: 56% | BPRS Anxiety score [2, 16]: 11 | MADRS Suicidal Thoughts score ([2]; TRD, single 12 mg inhaled, sum n=4, day 1, baseline 8): 5 | BPRS Blunted Affect score ([2]; TRD, single 12 mg inhaled, sum n=4, day 1, baseline 11): 6 | MADRS Reduced Sleep percentage improvement [2, 17]: 17% | MADRS Reduced Sleep score [2, 17]: 10 | BPRS Emotional Withdrawal score [2, 18]: 8 | MADRS Inner Tension percentage improvement [2, 18]: 77% | MADRS Inner Tension score [2, 18]: 3 | BPRS Tension score ([2]; TRD, single 12 mg inhaled, sum n=4, day 1, baseline 14): 6 | MADRS Concentration Difficulties score [2, 19]: 2 | MADRS Inability to Feel score [2, 19]: 1 | MADRS Lassitude percentage improvement [2, 19]: 100.00% | MADRS Lassitude score [2, 19]: 0 | MADRS Pessimistic Thoughts score [2, 19]: 7 | BPRS Guilt Feelings score ([2]; TRD, single 12 mg inhaled, sum n=4, day 1, baseline 18): 5 | BPRS Anxiety percentage improvement [2, 20]: 76% | BPRS Anxiety score [2, 20]: 6 | MADRS Suicidal Thoughts score ([2]; TRD, single 12 mg inhaled, sum n=4, day 7, baseline 8): 7 | BPRS Blunted Affect score ([2]; TRD, single 12 mg inhaled, sum n=4, day 7, baseline 11): 5 | MADRS Reduced Sleep percentage improvement [2, 21]: 50% | MADRS Reduced Sleep score [2, 21]: 6 | BPRS Emotional Withdrawal score [2, 22]: 6 | MADRS Inner Tension percentage improvement [2, 22]: 62% | MADRS Inner Tension score [2, 22]: 5 | BPRS Tension score ([2]; TRD, single 12 mg inhaled, sum n=4, day 7, baseline 14): 6 | MADRS Concentration Difficulties score [2, 23]: 3 | MADRS Inability to Feel score [2, 23]: 1 | MADRS Lassitude score [2, 23]: 3 | MADRS Pessimistic Thoughts percentage improvement [2, 23]: 50.00% | MADRS Pessimistic Thoughts score [2, 23]: 8 | BPRS Guilt Feelings score ([2]; TRD, single 12 mg inhaled, sum n=4, day 7, baseline 18): 5 | BPRS Anxiety percentage improvement [2, 24]: 76% | BPRS Anxiety score [2, 24]: 6
